Results: US4379158A, “Antisecretory imidazole amidine compounds, composition and method of use” (Yamanouchi Pharmaceutical Co., Ltd., priority 1977, dated 1983)
pIC50: −log10 of the molar value. Counter-ions that a name gives are not always drawn.

Tests used:
[1] = test system: H2-receptor; settings: Ash and Schild 1966; Black et al. 1972; cited from earlier work
[2] = biological target: T1, Histamine H2-receptor (Cavia porcellus, UniProt P47747); assay: Histamine H2-receptor blocking activity of test compounds in isolated guinea-pig atria (histamine-induced tachycardia); assay type: cell-based, guinea-pigs; settings: 5×10^-6 M histamine, Krebs-Henseleit solution, 36° C., mean ± S.E. from 5 experiments, read-out: ED50 (dose producing a 50% blockade of chronotropic action of histamine)
T1 construct: Atrial preparations isolated from guinea-pigs; from tissue; host or cells: isolated guinea-pig atria
T1 sequence (P47747 whole entry): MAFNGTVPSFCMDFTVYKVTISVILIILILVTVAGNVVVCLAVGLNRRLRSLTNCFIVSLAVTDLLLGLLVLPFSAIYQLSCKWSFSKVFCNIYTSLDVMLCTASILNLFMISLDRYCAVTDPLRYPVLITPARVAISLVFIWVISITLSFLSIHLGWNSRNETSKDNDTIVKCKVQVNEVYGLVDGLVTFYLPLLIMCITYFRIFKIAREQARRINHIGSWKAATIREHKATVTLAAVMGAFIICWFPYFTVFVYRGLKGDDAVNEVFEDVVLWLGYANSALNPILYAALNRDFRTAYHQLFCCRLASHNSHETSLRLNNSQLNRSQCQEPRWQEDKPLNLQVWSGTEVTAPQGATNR
Procedure: Atrial preparations isolated from guinea-pigs were suspended in Krebs-Henseleit solution at 36° C. (Mitchell, I. et al. Europ. J. Pharmacol., 34, 95, 1975). The dose producing a 50% blockade of chronotropic action of 5×10^-6 M histamine was obtained from the dose-respose curve in which the inhibition percentage was plotted semilogarithmically against dose.

[3] = test system: gastric acid secretion; assay: Effect of test compounds on gastric acid secretion in pylorus-ligated rats; assay type: in vivo; settings: 50 mg/kg intraduodenal, immediately after pylorus ligation, 7 rats, mean ± S.E., *p < 0.01; for Gastric contents, Volume: control 3.2 ± 0.3; for Gastric contents, Acid output: control 380 ± 40.1
Procedure: Rats weighing about 200 g. were deprived of food for 24 hours and their pylorus was ligated after an abdominal incision under ether anesthesia (Shay, H. et al.: Gastroenterol., 5, 43, 1945). Test compounds were intraduodenally given immediately after the pylorus ligation. The animals were sacrificed 4 hours after drug administration and gastric contents were collected. The gastric juice was titrated with 0.05 N NaOH to pH 7.0 for measurement of acidity.

Row | SMILES | inhibition/antagonism of the effects of histamine on gastric acid secretion and heart rate in isolated atrium (in words) [1] | pIC50 [2] | Gastric contents, Volume [3] [ml/4 hours/rat] | Gastric contents, Acid output [3] [μEq/4 hours/rat]
1 | C/N=C(\S)NCCSCc1[nH]cnc1C [metiamide] | antagonized | – | – | –
2 | C#CCN=C(N)CCSCc1nc[nH]c1C [Example 40, N2-Propynyl-3-[(5-methylimidazol-4-yl)methylthio]-propionamidine dihydrochloride] | – | 5.64 | – | –
3 | Cc1[nH]cnc1CSCCC(N)=NC(N)=O [Example 44, N-carbamoyl-3-(4-methyl-5-imidazolylmethylthio)-propionamidine] | – | 6.05 | 1.4 ± 0.2 | 79 ± 9.0
4 | CN(C)Cc1ccc(CSCCC(N)=NC#N)o1 [Example 41, NCyano-3-[5-(dimethylaminomethyl)furfurylthio]-propionamidine] | – | 5.68 | 1.5 ± 0.2 | 97 ± 17.2
5 | C#CCN=C(N)CCSCc1ccc(CN(C)C)o1 [Example 42, 3-[5-(Dimethylaminomethyl)furfurylthio]-N2-propynylpropionamidine dihydrochloride] | – | – | 1.7 ± 0.3 | 137 ± 31.5
6 | COc1ccc(CN(CCN(C)C)c2ccccn2)cc1 [mepyramine] | not inhibited | – | – | –
